Test results published in article PMC6792352, “Limited Chemical Structural Diversity Found to Modulate Thyroid Hormone Receptor in the Tox21 Chemical Library” (Environmental Health Perspectives, 2019).
Structures can show the parent of a compound that is named as a salt.

Assay: in vitro
Settings: rat, gh3-tre-luc cells, AC50 (uM) modified / 1000
In the case of `COC(=O)C(Br)CBr` (centres unmarked) [Methyl 2,3-dibromopropionate], the CC50 at 24 h is reported as greater than 90 µM.
With `Nc1cc(S(=O)(=O)O)ccc1S(=O)(=O)O` [2-Aminobenzene-1,4-disulfonic acid] the CC50 at 24 h was greater than 90 µM.
Work on `CCCCc1ccc(Cl)cc1` [4-Butylchlorobenzene] yielded a CC50 at 24 h greater than 90 µM.
`OCCOCCN1CCN(C2=Nc3ccccc3Sc3ccccc32)CC1` [Quetiapine] showed a CC50 at 24 h greater than 50 µM.
`CC(=O)OC(OC(C)=O)c1ccc([N+](=O)[O-])o1` [5-Nitro-2-furanmethanediol diacetate] gave a CC50 at 24 h of 14 µM.
Work on `CN1CCN(Cc2cc(-c3ccc4[nH]c(=O)oc4c3)co2)[C@@H](c2ccc(F)cc2)C1` [AVE8488] yielded a CC50 at 24 h of 24.8 µM.
In the case of `CC(O)CCCCn1c(=O)c2c(ncn2C)n(C)c1=O` (racemic) [(+/-)-Lisofylline], the CC50 at 24 h is reported as greater than 50 µM.
For `CCCC[N+]1(C)[C@@H]2CC(OC(=O)[C@H](CO)c3ccccc3)C[C@H]1[C@@H]1O[C@@H]12` (some centres unmarked) [Butylscopolammonium bromide], the CC50 at 24 h was greater than 50 µM.
With `C[C@H]1C[C@@H]2[C@H]([C@@H](O)C[C@@]3(C)[C@H]2CC[C@]3(O)C(=O)COC(=O)CCC(=O)O)[C@@]2(C)C=CC(=O)C=C12` [Methylprednisolone succinate] the CC50 at 24 h was greater than 50 µM.
`ClCc1ccc(Cl)cc1Cl` [2,4-Dichloro-1-(chloromethyl)benzene] showed a CC50 at 24 h greater than 90 µM.
`C[C@@H]1C[C@H]2[C@@H]3CCC4=CC(=O)C=C[C@]4(C)[C@@]3(F)[C@@H](O)C[C@]2(C)[C@@]1(O)C(=O)COC(=O)c1cccc(S(=O)(=O)O)c1` [Dexamethazone metasulfobenzoate sodium] showed a CC50 at 24 h greater than 50 µM.
For `Cc1ccc(C(C)C)c(O)c1` [Thymol], the CC50 at 24 h was greater than 90 µM.
In the case of `COc1cc(C)ccc1O` [2-Methoxy-4-methylphenol], the CC50 at 24 h is reported as greater than 90 µM.
Work on `CC[C@]1(O)C[C@H]2CN(CCc3c([nH]c4ccccc34)[C@@](C(=O)OC)(c3cc4c(cc3OC)N(C=O)[C@H]3[C@@](O)(C(=O)OC)[C@H](OC(C)=O)[C@]5(CC)C=CCN6CC[C@]43[C@@H]65)C2)C1` [Vincristine] yielded a CC50 at 24 h of 0.12 µM.
In the case of `CC(Cc1ccc(O)cc1)NCC(O)c1cc(O)cc(O)c1` (centres unmarked) [Fenoterol hydrobromide], the CC50 at 24 h is reported as greater than 50 µM.
Molecule `C=CCOC(=O)C(C)(C)OC(=O)c1cc(-n2c(=O)cc(C(F)(F)F)n(C)c2=O)ccc1Cl` [Butafenacil] has a CC50 at 24 h greater than 90 µM.
With `O=C(CCN1CCN(CCO)CC1)N1c2ccccc2Sc2ccc(C(F)(F)F)cc21` [Ftorpropazine] the CC50 at 24 h was 16.3 µM.
With `CC(CNC(=O)c1cccnc1)NC(=O)c1cccnc1` (centres unmarked) [Nicaraven] the CC50 at 24 h was greater than 50 µM.
In the case of `C=COCCOCCOCCOC=C` [3,6,9,12-Tetraoxatetradeca-1,13-diene], the CC50 at 24 h is reported as greater than 90 µM.
`C/C=C/C=C/C=O` [(2E,4E)-2,4-Hexadienal] showed a CC50 at 24 h greater than 90 µM.
`CC(C)(C)c1ccc(CSc2cnn(C(C)(C)C)c(=O)c2Cl)cc1` [Pyridaben] showed a CC50 at 24 h of 47.4 µM.
With `CCN(Cc1cccc(S(=O)(=O)O)c1)c1ccc(C(=C2C=CC(=[N+](CC)Cc3cccc(S(=O)(=O)O)c3)C=C2)c2ccc(O)cc2S(=O)(=O)[O-])cc1` [FD&C Green No. 3] the CC50 at 24 h was 41.3 µM.
For `CC(=O)OC[C@H]1O[C@@H](n2ncc(=O)[nH]c2=O)[C@H](OC(C)=O)[C@@H]1OC(C)=O` [6-Azaribine], the CC50 at 24 h was greater than 50 µM.
Work on `C=CCC1=C(C)[C@@H](OC(=O)[C@@H]2[C@@H](C=C(C)C)C2(C)C)CC1=O` [S-Bioallethrin] yielded a CC50 at 24 h of 32.6 µM.
`CCC(=O)OC(C)c1ccccc1` (centres unmarked) [1-Phenylethyl propionate] showed a CC50 at 24 h greater than 90 µM.
Work on `CC(=O)Nc1ccc(S(=O)(=O)Cl)cc1` [4-(Acetylamino)benzenesulfonyl chloride] yielded a CC50 at 24 h greater than 90 µM.
In the case of `CCCCCCCCCC(=O)OC` [Methyl decanoate], the CC50 at 24 h is reported as greater than 90 µM.
With `C[N+]1(C)CCC(=C(c2ccccc2)c2ccccc2)CC1` [Diphemanil methylsulfate] the CC50 at 24 h was greater than 20 µM.
In the case of `O=Nc1ccc(O)cc1` [4-Nitrosophenol], the CC50 at 24 h is reported as greater than 90 µM.
`O=C(c1ccc2c(c1)C(=O)OC2=O)c1ccc2c(c1)C(=O)OC2=O` [Benzophenonetetracarboxylic dianhydride] gave a CC50 at 24 h greater than 90 µM.
`O=[N+]([O-])c1cccc(CCl)c1` [3-Nitrobenzyl chloride] showed a CC50 at 24 h greater than 90 µM.
In the case of `c1ccc([C@H]2CN3CCSC3=N2)cc1` [Levamisole hydrochloride], the CC50 at 24 h is reported as greater than 50 µM.
In the case of `CC(C)(C)OC(=O)c1ccc(O)cc1` [tert-Butyl 4-hydroxybenzoate], the CC50 at 24 h is reported as greater than 90 µM.
With `Nc1ccc(S(=O)(=O)O)c(N)c1` [2,4-Diaminobenzenesulfonic acid] the CC50 at 24 h was greater than 90 µM.
Molecule `O=Cc1ccc(F)c(Br)c1` [3-Bromo-4-fluorobenzaldehyde] has a CC50 at 24 h greater than 90 µM.
Work on `C=CC(=O)OCCCl` [2-Chloroethyl acrylate] yielded a CC50 at 24 h greater than 90 µM.
In the case of `C=COCC1CCC(COC=C)CC1` (centres unmarked) [1,4-Bis[(ethenyloxy)methyl]cyclohexane], the CC50 at 24 h is reported as greater than 90 µM.
Work on `Nc1ccncc1` [4-Aminopyridine] yielded a CC50 at 24 h greater than 90 µM.
Work on `CC(Oc1cc(Cl)ccc1Cl)C(=O)O` (stereo not drawn) [alpha-(2,5-Dichlorophenoxy)propionic acid] yielded a CC50 at 24 h greater than 90 µM.
For `CCCCC(=O)O[C@]1(C(=O)CO)[C@@H](C)C[C@H]2[C@@H]3CCC4=CC(=O)C=C[C@]4(C)[C@@]3(F)[C@@H](O)C[C@@]21C` [Betamethasone valerate], the CC50 at 24 h was 77.9 µM.
With `CNCCC(Oc1ccccc1OC)c1ccccc1` (centres unmarked) [Nisoxetine] the CC50 at 24 h was 38.3 µM.
`CC(=O)CCc1ccccc1` [Benzylacetone] gave a CC50 at 24 h greater than 90 µM.
Molecule `Cc1cccc(O)c1` [m-Cresol] has a CC50 at 24 h greater than 100 µM.
`CCOC(=O)[C@H](CCc1ccccc1)N[C@@H](C)C(=O)N(CC(=O)O)C1Cc2ccccc2C1` [Delapril hydrochloride] gave a CC50 at 24 h greater than 50 µM.
`c1ccc2c(c1)[nH]c1ccccc12` [Carbazole] showed a CC50 at 24 h greater than 90 µM.
`Cc1cc(C(C)(C)C)c(O)c(C)c1CC1=NCCN1` [Oxymetazoline] gave a CC50 at 24 h greater than 50 µM.
Molecule `NS(=O)(=O)c1ccccc1Cl` [2-Chlorobenzenesulfonamide] has a CC50 at 24 h greater than 90 µM.
`C[N+](C)(C)CC(=O)O` [Betaine monohydrate] gave a CC50 at 24 h greater than 90 µM.
`CN1CCC(=C2c3ccccc3CC(=O)c3sccc32)CC1` [Ketotifen] showed a CC50 at 24 h of 16 µM.
For `CC/C=C\C/C=C\C/C=C\C/C=C\C/C=C\CCCC(=O)O` [Eicosapentaenoic acid], the CC50 at 24 h was greater than 50 µM.
`CC(C)C1(C)N=C(c2nc3ccccc3cc2C(=O)O)NC1=O` (centres unmarked) [Imazaquin] showed a CC50 at 24 h greater than 90 µM.
`CCC(=O)OCc1ccc(OC)cc1` [Anisyl propionate] showed a CC50 at 24 h greater than 90 µM.

Same assay, conditions: rat, gh3-tre-luc cells, AC50 (uM) modified / 1000, Tox21_110001=Tox21_111063; viability, 1 nM T3 present, 24 h
For `CCCC(C)(COC(N)=O)COC(N)=O` [Meprobamate], the CC50 at 24 h was greater than 50 µM.

Same assay, conditions: rat, gh3-tre-luc cells, AC50 (uM) modified / 1000, Tox21_110001=Tox21_111607; viability, 1 nM T3 present, 24 h
`CC1OC(C)OC(C)O1` (centres unmarked) [Paraldehyde] gave a CC50 at 24 h greater than 50 µM.

Same assay, conditions: rat, gh3-tre-luc cells, AC50 (uM) modified / 1000, Tox21_110001=Tox21_200332; viability, 1 nM T3 present, 24 h
In the case of `CCCC(C)(COC(N)=O)COC(N)=O` [Meprobamate], the CC50 at 24 h is reported as greater than 90 µM.

Same assay, conditions: rat, gh3-tre-luc cells, AC50 (uM) modified / 1000, Tox21_110001=Tox21_200984; viability, 1 nM T3 present, 24 h
`C=CC=O` [Acrolein] gave a CC50 at 24 h greater than 90 µM.

Same assay, conditions: rat, gh3-tre-luc cells, AC50 (uM) modified / 1000, Tox21_110001=Tox21_201114; viability, 1 nM T3 present, 24 h
Work on `O=C(O)CCl` [Chloroacetic acid] yielded a CC50 at 24 h greater than 90 µM.

Same assay, conditions: rat, gh3-tre-luc cells, AC50 (uM) modified / 1000, Tox21_110001=Tox21_201196; viability, 1 nM T3 present, 24 h
`ClC(Cl)=C(Cl)Cl` [Tetrachloroethylene] showed a CC50 at 24 h greater than 90 µM.

Same assay, conditions: rat, gh3-tre-luc cells, AC50 (uM) modified / 1000, Tox21_110001=Tox21_202305; viability, 1 nM T3 present, 24 h
For `Cc1ccccc1O` [o-Cresol], the CC50 at 24 h was greater than 90 µM.

Same assay, conditions: rat, gh3-tre-luc cells, AC50 (uM) modified / 1000, Tox21_110001=Tox21_202323; viability, 1 nM T3 present, 24 h
In the case of `c1ccc(NNc2ccccc2)cc1` [1,2-Diphenylhydrazine], the CC50 at 24 h is reported as greater than 90 µM.

Same assay, conditions: rat, gh3-tre-luc cells, AC50 (uM) modified / 1000, Tox21_110001=Tox21_300492; viability, 1 nM T3 present, 24 h
`c1ccc(NNc2ccccc2)cc1` [1,2-Diphenylhydrazine] gave a CC50 at 24 h of 67.9 µM.

Same assay, conditions: rat, gh3-tre-luc cells, AC50 (uM) modified / 1000, Tox21_110001=Tox21_301299; viability, 1 nM T3 present, 24 h
Work on `CC1OC(C)OC(C)O1` (centres unmarked) [Paraldehyde] yielded a CC50 at 24 h greater than 90 µM.

Same assay, conditions: rat, gh3-tre-luc cells, AC50 (uM) modified / 1000, Tox21_110001=Tox21_301323; viability, 1 nM T3 present, 24 h
`CC(C)c1ccc(O)cc1` [4-Isopropylphenol] gave a CC50 at 24 h greater than 90 µM.

Same assay, conditions: rat, gh3-tre-luc cells, AC50 (uM) modified / 1000, Tox21_110001=Tox21_301746; viability, 1 nM T3 present, 24 h
In the case of `CNC=Nc1ccc(C)cc1C` [N'-(2,4-Dimethylphenyl)-N-methylformamidine], the CC50 at 24 h is reported as greater than 90 µM.

Same assay, conditions: rat, gh3-tre-luc cells, AC50 (uM) modified / 1000, Tox21_110001=Tox21_302252; viability, 1 nM T3 present, 24 h
With `O=C(NCc1cccnc1)Nc1ccc([N+](=O)[O-])cc1` [Pyrinuron] the CC50 at 24 h was 81.3 µM.
